Target: T1, HrcN (Δ1-18 WT HrcN) (Pseudomonas syringae group genomosp. 3, UniProt Q887B5)
T1 construct: gene sctN; N-terminal residues 1-18 removed, His6-tagged (tag not reported cut), pETM11, expressed in E. coli BL21(DE3) pLysS, HisTrap purified
Type: binding
Conditions: 1 mM unlabelled competitor, 1.25 µM HrcN, 0.6 µM 2'-Fluo-AHC-c-diGMP; pH 7.5, 10 mM MgCl2

Nc1nc2c(ncn2[C@@H]2O[C@@H]3COP(=O)(O)O[C@H]4[C@@H](O)[C@H](n5cnc6c(=O)[nH]c(N)nc65)O[C@@H]4COP(=O)(O)O[C@H]3[C@H]2O)c(=O)[nH]1 [cyclic-di-GMP]
competition DRaCALA against fluorescent c-di-GMP: fluorescent cdG binding could be disrupted by the addition of unlabelled cdG
